Measured values: EP0467660A2, “Use of d-limonenes as testosterone-5-alpha-reductase inhibitor and as hair grower” (Miyauchi, Yutaka, priority 1990, dated 1992)

Tested on: testosterone 5α-reductase
Test: Testosterone 5α-reductase enzymatic activity inhibitory ratio (crude rat prostate enzyme, [4-14C]-testosterone to DHT conversion, TLC)
Format: biochemical, Wristar male rat
Details: 37°C, two hours; for inhibitory effect on the testosterone 5α-reductase activity: result in words, Figs. 3-5
Method: A Wristar male rat weighing 250-300 g was sacrificed by bleeding, and its prostata was excised. The prostata was cut into fragments under ice-cooling. A 0.1 M HEPES buffer solution (pH: 7.4) containing 0.25 M sucrose (the buffer solution is hereinafter referred to as buffer solution A) was added to the fragments in the amount three times the wet weight of the fragments. Using a Potter-type homogenizer made of Teflon, the mixture was homogenized. The homogenate was filtered using a stainless mesh of a 200 µ size, and then the filtrate was centrifuged at 3000 rpm (900 xg) for ten minutes. The precipitate was suspended in 2.5 parts of buffer solution A, followed by centrifuging at 3000 rpm for five minutes. The residue recovered was suspended in buffer solution A weighing 0.8 times the wet weight of the fragments to produce a crude enzyme solution. The crude enzyme solution was stored at -70°C.
The test sample (less than 10 µl) previously prepared was added to [4-¹⁴C]-testosterone (1.5 nmol, 2.85 kBq), NADPH (0.5 µmol), and the enzyme solution (30 µl) cited above. To this was added the buffer solution A to the extent that the total volume became 100 µl, to prepare a reaction liquid. An enzymatic reaction was performed using the reaction liquid at 37°C for two hours. The enzymatic reaction was initiated by removing the reaction liquid from an ice-water-cooled bath to a 37°C warm bath. The enzymatic reaction was terminated by cooling the reaction liquid in ice-water. […]
A radiation activity of the developed material on the TLC plate cited above was measured by means of an AMBIS image analyzer.
Two spots shown in a chromatogram were subjected to readings of the radiation activities identified by their positions corresponding to testosterone (T) and dihydrotestosterone (DHT) respectively. […] Defining the conversion rate in the presence of the negative control as 100, a percentage of the conversion rate in the presence of the sample was calculated to determine the degree of the enzymatic activity inhibitory ratio of the sample. […]

Structure (SMILES)	inhibitory effect on the testosterone 5α-reductase activity	IC50 (Fig. 1, 120 min, read-out: amount exhibiting a inhibitory ratio of 50%)
C=C(C)[C@H]1CC=C(C)CC1 [d-limonene]	considerable high inhibitory effect	–
CC1(C)[C@@H](O)CC[C@]2(C)[C@H]3C(=O)C=C4[C@@H]5C[C@@](C)(C(=O)O)CC[C@]5(C)CC[C@@]4(C)[C@]3(C)CC[C@@H]12 [sodium β-glycyrrhetinic acid]	–	500 µM
C=C[C@H]1[C@H](O[C@@H]2O[C@H](CO)[C@@H](O)[C@H](O)[C@H]2O)OC=C2C(=O)OCC[C@]21O [swertiamarin]	no inhibitory effect	–
